Columns and labels:
[1] = in vitro; details: human, CC50, Huh-7.5 cells, MTS assay, 72 h
[2] = tested on: HCVcc (Jc1/JFH genotype 2a); format: cell-based, hepatitis C virus
[3] = tested on: HCVcc; test: HCVcc dose-response SEAP reporter assay in Huh7-J20 cells; details: for IC50: Hepatitis C virus, Huh7-J20, 72 h; for selectivity index (SI), CC50/IC50 ratio: Huh7-J20 cells, HCVcc
[4] = tested on: HCV replication (Huh7-J17 replicon cell line); test: HCV replicon luciferase assay in Huh7-J17 cells; details: 72 h; for effect on HCV replication process (luciferase activity): Huh7-J17 replicon cells, different doses
[5] = tested on: HCV E2 glycoprotein; test: Western blot of E2 glycoprotein accumulation in transfected HEK293T cells; details: anti-E2 MAb AP33, 48 h post transfection
[6] = tested on: influenza A virus; details: cited from earlier work; for antiviral activity against influenza A virus: among compounds 1–9
[7] = tested on: HCVpp; details: 50 μM, added to HEK-293T producer cells; luciferase in infected Huh-7.5 cells
[8] = MTS cytotoxicity alongside the Huh7-J20 SEAP assay; details: human, Huh7-J20 cells
[9] = tested on: classical swine fever virus; details: cited from earlier work
[10] = tested on: HCVpp; test: microbe, parasite or virus in culture; details: Hepatitis C virus, read-out: inhibition of infection (HCVpp)

With CC(=O)OC[C@H]1O[C@H](OC[C@H]2O[C@@H](n3ccc(=O)n(Cc4ccccc4)c3=O)[C@@H]3OC(C)(C)O[C@@H]32)C[C@@H](OC(C)=O)[C@@H]1OC(C)=O [Compound 8] the CC50 [1] was 223 µM and the “anti-HCV activity (reduction of pseudoplaques)” value [2] was “minor anti-HCV activity”.

With CC(C)OC(=O)[C@H](C)N[P@](=O)(OC[C@H]1O[C@@H](n2ccc(=O)[nH]c2=O)[C@](C)(F)[C@@H]1O)Oc1ccccc1 [Sofosbuvir, reference compound] the IC50 [3] was 0.26 µM, the “selectivity index (SI), CC50/IC50 ratio” value [3] was “about 120” and the IC50 ([4]; Hepatitis C virus) was 0.028 µM.

For CC1(C)O[C@@H]2[C@H](O1)[C@@H](CO[C@@H]1C[C@@H](OCc3ccccc3)[C@H](OCc3ccccc3)[C@@H](COCc3ccccc3)O1)O[C@H]2n1ccc(=O)n(C(=O)c2ccccc2)c1=O [Compound 4], the CC50 [1] is given as 151 µM, the “accumulation of E2 glycoprotein in HEK293T cells” value [5] is given as “no change in the accumulation” and the “antiviral activity against influenza A virus” value [6] is given as “most active”. For the same molecule, the “reduction of HCVpp production and/or infectivity relative to DMSO control” value [7] was “about 80%”, the CC50 [8] was 142 µM and the IC50 [3] was 2.1 µM. For the same molecule, the “selectivity index (SI), CC50/IC50 ratio” value [3] was 67.6, the “anti-HCV activity (reduction of pseudoplaques)” value [2] was “high antiviral activity” and the “effect on HCV replication process (luciferase activity)” value [4] was “no effect on HCV replication process”.

For CC1(C)O[C@@H]2[C@H](O1)[C@@H](CO[C@@H]1C[C@@H](OCc3ccccc3)[C@H](OCc3ccccc3)[C@@H](CO[Si](C)(C)C(C)(C)C)O1)O[C@H]2n1ccc(=O)n(C(=O)c2ccccc2)c1=O [IW3], the “ability to inhibit classical swine fever virus” value [9] is given as “most active” and the “ability to inhibit influenza A virus” value [6] is given as “most active”.

In the case of CC1(C)O[C@@H]2[C@H](O1)[C@@H](CO[C@@H]1C[C@@H](OCc3ccccc3)[C@H](OCc3ccccc3)[C@@H](CO)O1)O[C@H]2n1ccc(=O)n(C(=O)c2ccccc2)c1=O [IW7], the “ability to inhibit classical swine fever virus” value [9] is listed as “most active” and the “ability to inhibit influenza A virus” value [6] is listed as “most active”.

In the case of O=c1ccn([C@@H]2O[C@H](CO[C@@H]3C[C@@H](O)[C@H](O)[C@@H](CO)O3)[C@@H](O)[C@H]2O)c(=O)[nH]1 [Compound 9], the CC50 [1] is reported as 245 µM and the “anti-HCV activity (reduction of pseudoplaques)” value [2] is reported as “minor anti-HCV activity”.

In the case of CC1(C)O[C@@H]2[C@H](O1)[C@@H](CO[C@@H]1C[C@@H](OCc3ccccc3)[C@H](OCc3ccccc3)[C@@H](COCc3ccccc3)O1)O[C@H]2n1ccc(=O)[nH]c1=O [Compound 3], the CC50 [1] is reported as 89 µM and the “anti-HCV activity (reduction of pseudoplaques)” value [2] is reported as “minor anti-HCV activity”.

Molecule CC(=O)N[C@H]1[C@@H](O[C@@H]2O[C@H](C[C@@H](O)[C@H]3O[C@@H](n4ccc(=O)[nH]c4=O)[C@H](O)[C@@H]3O)[C@H](O)[C@H](O)[C@H]2NC(=O)/C=C/CCCCCCCCCC(C)C)O[C@H](CO)[C@@H](O)[C@@H]1O [Tunicamycin] has an inhibition at 5 µM [10] greater than 80%.

In the case of CC(=O)OC[C@H]1O[C@H](OC[C@H]2O[C@@H](n3ccc(=O)[nH]c3=O)[C@@H]3OC(C)(C)O[C@@H]32)C[C@@H](OC(C)=O)[C@@H]1OC(C)=O [Compound 6], the CC50 [1] is reported as 210 µM and the “anti-HCV activity (reduction of pseudoplaques)” value [2] is reported as “no obvious anti-HCV activity”.

In the case of CC(=O)O[C@H]1[C@H](C)O[C@H](OC[C@H]2O[C@@H](n3ccc(=O)[nH]c3=O)[C@@H]3OC(C)(C)O[C@@H]32)C[C@@H]1O[Si](C)(C)C(C)(C)C [Compound 1], the CC50 [1] is reported as 85 µM and the “anti-HCV activity (reduction of pseudoplaques)” value [2] is reported as “no obvious anti-HCV activity”.

For CC1(C)O[C@@H]2[C@H](O1)[C@@H](CO[C@@H]1C[C@@H](OCc3ccccc3)[C@H](OCc3ccccc3)[C@@H](CO[Si](C)(C)C(C)(C)C)O1)O[C@H]2n1ccc(=O)[nH]c1=O [Compound 5], the CC50 [1] was 83 µM and the “anti-HCV activity (reduction of pseudoplaques)” value [2] was “no obvious anti-HCV activity”.

For CC(=O)O[C@H]1[C@H](C)O[C@H](OC[C@H]2O[C@@H](n3ccc(=O)n(C(=O)c4ccccc4)c3=O)[C@@H]3OC(C)(C)O[C@@H]32)C[C@@H]1O[Si](C)(C)C(C)(C)C [Compound 2], the CC50 [1] is given as 119 µM, the “accumulation of E2 glycoprotein in HEK293T cells” value [5] is given as “no change in the accumulation” and the “antiviral activity against influenza A virus” value [6] is given as “most active”. The “reduction of HCVpp production and/or infectivity relative to DMSO control” value [7] was “about 80%”, the CC50 [8] was 113 µM and the IC50 [3] was 8.9 µM. For the same molecule, the “selectivity index (SI), CC50/IC50 ratio” value [3] was 12.7, the “anti-HCV activity (reduction of pseudoplaques)” value [2] was “high antiviral activity” and the “effect on HCV replication process (luciferase activity)” value [4] was “no effect on HCV replication process”.
